Drawing on patent US20120129833A1, “CYCLIC KETOENOLS FOR THERAPY” (BAYER PHARMA AKTIENGESELLSCHAFT, priority 2010, published 2012), this text covers IC50 for 24 compounds.

For orientation: IC50 means the concentration that gives 50% inhibition.

Assay [1] has as its target T1, recombinant human ACC1 (acetyl-CoA carboxylase 1) (Homo sapiens, UniProt Q13085).
T1 construct: NM_198834, amino acids 39—end; FLAG (C); made in house; host or cells: baculovirus-transfected insect cells (Hi5)
In words: Human ACC1 enzyme assay (HTRF ADP detection).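 Note: ADP by-product quantified by competitive HTRF immunoassay with europium cryptate anti-ADP antibody and d2-labelled ADP, read after 1 h binding at 22 °C, enzyme near 2.5 ng/µl.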 The class given is biochemical. The conditions noted are these: 50 μM ATP, 20 μM acetyl-CoA, 15 min pre-incubation, 20 min at 22° C.; read-out: ACC 1 IC50.
Experimental: The basic principle of the assay is the measurement of adenosine diphosphate (ADP), which is formed as a by-product, by means of an HTRF®-based competitive immunoassay (HTRF=Homogeneous Time Resolved Fluorescence).
The amount of complex of d2-labelled ADP and europium cryptate-labelled anti-ADP antibody was then determined by measuring the resonance energy transfer of europium cryptate to d2.

Assay [2] concerns the target T2, ACC2 (acetyl-CoA carboxylase 2) (Homo sapiens, UniProt O00763).
T2 construct: catalogue no; 50201, amino acids 39—end, expressed in baculovirus-transfected Sf9 insect cells; His (C); purchased BPS Bioscience (San Diego, Calif.) 50201; host or cells: baculovirus-transfected Sf9 insect cells
In words: Human ACC2 enzyme assay (HTRF ADP detection). The conditions noted are these: 20 μM acetyl-CoA, 15 min pre-incubation, 20 min at 22° C.; read-out: ACC 2 IC50. The class given is biochemical. Background: Time-resolved FRET reads energy transfer from a long-lived donor to a nearby acceptor.

Structures are written as SMILES.

T2 sequence (O00763 39-2458 limits assumed): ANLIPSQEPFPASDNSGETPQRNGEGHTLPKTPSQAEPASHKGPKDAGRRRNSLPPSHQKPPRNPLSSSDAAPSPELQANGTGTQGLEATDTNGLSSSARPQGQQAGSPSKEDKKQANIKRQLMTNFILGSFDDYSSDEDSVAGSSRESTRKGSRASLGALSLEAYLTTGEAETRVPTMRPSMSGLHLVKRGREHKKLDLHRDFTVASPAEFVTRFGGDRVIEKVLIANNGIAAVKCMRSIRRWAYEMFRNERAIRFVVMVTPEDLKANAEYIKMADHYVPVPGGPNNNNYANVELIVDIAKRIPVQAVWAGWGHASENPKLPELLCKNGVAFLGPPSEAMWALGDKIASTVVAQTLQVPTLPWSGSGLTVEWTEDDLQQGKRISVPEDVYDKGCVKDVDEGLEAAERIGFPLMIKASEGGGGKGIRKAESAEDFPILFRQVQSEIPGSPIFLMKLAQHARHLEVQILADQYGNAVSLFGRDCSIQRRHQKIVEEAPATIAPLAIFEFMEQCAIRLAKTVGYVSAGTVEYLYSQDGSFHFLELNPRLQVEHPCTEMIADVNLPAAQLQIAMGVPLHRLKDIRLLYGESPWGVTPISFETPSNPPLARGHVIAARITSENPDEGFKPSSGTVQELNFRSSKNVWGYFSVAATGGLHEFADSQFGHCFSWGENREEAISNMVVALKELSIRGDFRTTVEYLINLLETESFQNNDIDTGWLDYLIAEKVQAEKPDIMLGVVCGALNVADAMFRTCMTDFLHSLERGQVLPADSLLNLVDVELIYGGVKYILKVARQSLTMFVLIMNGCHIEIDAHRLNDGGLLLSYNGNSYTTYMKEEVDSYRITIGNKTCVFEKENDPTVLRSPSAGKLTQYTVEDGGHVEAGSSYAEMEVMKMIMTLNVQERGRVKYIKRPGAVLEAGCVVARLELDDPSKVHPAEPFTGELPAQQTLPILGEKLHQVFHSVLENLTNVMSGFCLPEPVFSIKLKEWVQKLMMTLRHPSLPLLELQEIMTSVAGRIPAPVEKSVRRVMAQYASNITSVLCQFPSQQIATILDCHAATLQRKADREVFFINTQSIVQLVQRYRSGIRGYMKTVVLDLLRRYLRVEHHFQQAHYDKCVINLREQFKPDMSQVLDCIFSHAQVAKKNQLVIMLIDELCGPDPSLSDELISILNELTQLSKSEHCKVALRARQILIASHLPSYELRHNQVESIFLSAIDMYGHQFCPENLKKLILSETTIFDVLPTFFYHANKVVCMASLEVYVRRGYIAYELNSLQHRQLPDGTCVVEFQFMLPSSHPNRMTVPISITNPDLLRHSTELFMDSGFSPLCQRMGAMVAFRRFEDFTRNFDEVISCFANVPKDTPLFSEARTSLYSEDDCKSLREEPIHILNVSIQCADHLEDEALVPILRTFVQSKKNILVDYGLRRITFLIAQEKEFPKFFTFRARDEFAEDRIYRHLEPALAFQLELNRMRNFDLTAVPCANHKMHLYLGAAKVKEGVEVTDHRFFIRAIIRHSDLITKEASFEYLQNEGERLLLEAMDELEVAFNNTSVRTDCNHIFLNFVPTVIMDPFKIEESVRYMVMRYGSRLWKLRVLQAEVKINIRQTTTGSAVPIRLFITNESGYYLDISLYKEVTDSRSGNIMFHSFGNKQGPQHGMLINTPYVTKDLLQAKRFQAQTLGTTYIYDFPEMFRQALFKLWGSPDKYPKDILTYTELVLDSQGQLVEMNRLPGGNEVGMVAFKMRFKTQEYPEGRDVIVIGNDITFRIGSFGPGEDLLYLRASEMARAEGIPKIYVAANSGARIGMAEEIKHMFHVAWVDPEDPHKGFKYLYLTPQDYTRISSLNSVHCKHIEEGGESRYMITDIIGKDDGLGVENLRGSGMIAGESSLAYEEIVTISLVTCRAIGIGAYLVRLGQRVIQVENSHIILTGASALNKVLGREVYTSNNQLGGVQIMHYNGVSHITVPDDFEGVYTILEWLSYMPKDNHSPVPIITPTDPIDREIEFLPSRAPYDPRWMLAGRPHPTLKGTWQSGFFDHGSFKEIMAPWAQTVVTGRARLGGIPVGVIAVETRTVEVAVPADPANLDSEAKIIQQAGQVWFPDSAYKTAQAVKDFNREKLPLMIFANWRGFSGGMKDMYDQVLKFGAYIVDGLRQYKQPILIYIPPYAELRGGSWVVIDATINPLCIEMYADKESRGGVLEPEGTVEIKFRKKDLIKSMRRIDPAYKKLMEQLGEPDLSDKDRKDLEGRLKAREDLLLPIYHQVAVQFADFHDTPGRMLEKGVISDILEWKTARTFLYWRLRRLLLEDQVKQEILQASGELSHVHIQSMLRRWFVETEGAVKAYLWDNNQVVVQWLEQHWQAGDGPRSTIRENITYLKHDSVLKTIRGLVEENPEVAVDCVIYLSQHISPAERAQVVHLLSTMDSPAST

For `Cc1cc(C)c(-c2ccc(Cl)cc2)cc1C1=C(O)CC(C)(C)CC1=O` [Example 7-3, 2-(4′-chloro-4,6-dimethylbiphenyl-3-yl)-3-hydroxy-5,5-dimethylcyclohex-2-en-1-one], the IC50 in assay [1] amounted to 1.59 µM; in assay [2] it was 5.34 µM.
With `Cc1cc(C)c(-c2ccc(Cl)cc2)cc1C1=C(O)C(C)(C)CCC1=O` [Example 7-4, 2-(4′-chloro-4,6-dimethylbiphenyl-3-yl)-3-hydroxy-4,4-dimethylcyclohex-2-en-1-one], the IC50 in assay [1] amounted to 3.67 µM; in assay [2], 3.71 µM.
`Cc1ccc(-c2ccc(Cl)cc2)cc1C1=C(O)CC(C)(C)CC1=O` [Example 7-5, 2-(4′-chloro-4-methylbiphenyl-3-yl)-3-hydroxy-5,5-dimethylcyclohex-2-en-1-one]: the half-maximal inhibitory concentration (IC50) was 0.61 µM in assay [1] and above 20 µM in assay [2].
Taken in the same sequence, the figures for `Cc1ccc(-c2ccc(F)cc2)c(C)c1C1C(=O)N2CCCCN2C1=O` [Example 8-1, 2-(4′-fluoro-2,4-dimethylbiphenyl-3-yl)tetrahydro-1H-pyrazolo[1,2-a]pyridazine-1,3(2H)-dione] were 2.46 µM and above 20 µM.
Take `O=C1C(c2cc(-c3ccc(Cl)cc3)ccc2Cl)C(=O)N2CCCCN12` [Example 8-2, 2-(4,4′-dichlorobiphenyl-3-yl)tetrahydro-1H-pyrazolo[1,2-a]pyridazine-1,3(2H)-dione]: the values for the half-maximal inhibitory concentration (IC50) in assay [1] and in assay [2] were 0.891 µM and above 20 µM, respectively.
For `Cc1ccc(-c2ccc(Cl)cc2)cc1C1C(=O)N2CCCCN2C1=O` [Example 8-3, 2-(4′-chloro-4-methylbiphenyl-3-yl)tetrahydro-1H-pyrazolo[1,2-a]pyridazine-1,3(2H)-dione] the same measures were 1.14 µM and above 20 µM.
For `O=C1C(c2cc(-c3ccc(F)c(Cl)c3)ccc2Cl)C(=O)N2CCCCN12` [Example 8-4, 2-(3′,4-dichloro-4′-fluorobiphenyl-3-yl)tetrahydro-1H-pyrazolo[1,2-a]pyridazine-1,3(2H)-dione] the same measures were 3.18 µM and above 20 µM.
Turning to `Cc1ccc(-c2ccc(F)cc2F)cc1C1C(=O)N2CCOCCN2C1=O` [Example 8-5, 8-(2′,4′-difluoro-4-methylbiphenyl-3-yl)tetrahydro-7H-pyrazolo[1,2-d][1,4,5]oxadiazepine-7,9(8H)-dione], the IC50 is 2.08 µM in assay [1] and above 20 µM in assay [2].
As to `Cc1ccc(-c2ccc(Cl)cc2)cc1C1C(=O)N2CCOCCN2C1=O` [Example 8-6, 8-(4′-chloro-4-methylbiphenyl-3-yl)tetrahydro-7H-pyrazolo[1,2-d][1,4,5]oxadiazepine-7,9(8H)-dione], the IC50 in assay [1] is 1.38 µM; in assay [2], above 20 µM.
For `Cc1ccc(-c2ccc(F)cc2)c(C)c1C1C(=O)N2CCOCCN2C1=O` [Example 8-7, 8-(4′-fluoro-2,4-dimethylbiphenyl-3-yl)tetrahydro-7H-pyrazolo[1,2-d][1,4,5]oxadiazepine-7,9(8H)-dione] the same measures were 2.38 µM and above 20 µM.
Consider `Cc1ccc(-c2ccc(Cl)cc2)c(C)c1C1C(=O)N2CCOCCN2C1=O` [Example 8-8, 8-(4′-chloro-2,4-dimethylbiphenyl-3-yl)tetrahydro-7H-pyrazolo[1,2-d][1,4,5]oxadiazepine-7,9(8H)-dione], for which the IC50 in assay [1] was 0.936 µM; in assay [2], 16.9 µM.
On to `O=C1C(c2cc(-c3ccc(Cl)cc3Cl)ccc2Cl)C(=O)N2CCOCCN12` [Example 8-9, 8-(2′,4,4′-trichlorobiphenyl-3-yl)tetrahydro-7H-pyrazolo[1,2-d][1,4,5]oxadiazepine-7,9(8H)-dione], for which the values for the IC50 in assay [1] and in assay [2] were 0.457 µM and above 20 µM, respectively.
Turning to `O=C1C(c2cc(-c3ccc(Cl)c(Cl)c3)ccc2Cl)C(=O)N2CCOCCN12` [Example 8-10, 8-(3′,4,4′-trichlorobiphenyl-3-yl)tetrahydro-7H-pyrazolo[1,2-d][1,4,5]oxadiazepine-7,9(8H)-dione], the IC50 in assay [1] was 1.13 µM; in assay [2] it was above 20 µM.
Regarding `O=C1C(c2cc(-c3ccc(F)cc3F)ccc2Cl)C(=O)N2CCOCCN12` [Example 8-11, 8-(4-chloro-2′,4′-difluorobiphenyl-3-yl)tetrahydro-7H-pyrazolo[1,2-d][1,4,5]oxadiazepine-7,9(8H)-dione], the IC50 is 0.713 µM in assay [1] and above 20 µM in assay [2].
`Cc1ccc(-c2ccc(Cl)cc2)cc1C1C(=O)N2CC(C)(F)CN2C1=O` [Example 8-12, 2-(4′-chloro-4-methylbiphenyl-3-yl)-6-fluoro-6-methyldihydro-1H,5H-pyrazolo[1,2-a]pyrazole-1,3(2H)-dione]: the half-maximal inhibitory concentration (IC50) is 0.587 µM in assay [1] and above 20 µM in assay [2].
Turning to `CC1(F)CN2C(=O)C(c3cc(-c4ccc(Cl)cc4)ccc3Cl)C(=O)N2C1` [Example 8-13, 2-(4,4′-dichlorobiphenyl-3-yl)-6-fluoro-6-methyldihydro-1H,5H-pyrazolo[1,2-a]pyrazole-1,3(2H)-dione], the IC50 in assay [1] is 0.64 µM; in assay [2], above 20 µM.
Regarding `Cc1ccc(-c2ccc(Cl)cc2)cc1C1C(=O)N(C)N(C)C1=O` [Example 8-14, 4-(4′-chloro-4-methylbiphenyl-3-yl)-1,2-dimethyl-1H-pyrazole-3,5(2H,4H)-dione], the IC50 was 2.4 µM in assay [1] and above 20 µM in assay [2].
For `CN1C(=O)C(c2cc(-c3ccc(Cl)cc3)ccc2Cl)C(=O)N1C` [Example 8-15, 4-(4,4′-dichlorobiphenyl-3-yl)-1,2-dimethyl-1H-pyrazole-3,5(2H,4H)-dione] the same measures were 1.97 µM and above 20 µM.
With `Cc1ccc(-c2ccc(Cl)cc2)cc1C1C(=O)N2C3CCC(C3)N2C1=O` (stereo not drawn) [Example 8-16, 2-(4′-chloro-4-methylbiphenyl-3-yl)tetrahydro-1H-5,8-methanopyrazolo[1,2-a]pyridazine-1,3(2H)-dione], the IC50 in assay [1] is 0.662 µM; in assay [2] it was above 20 µM.
Regarding `O=C1C(c2cc(-c3ccc(Cl)cc3)ccc2Cl)C(=O)N2C3CCC(C3)N12` (stereo not drawn) [Example 8-17, 2-(4,4′-dichlorobiphenyl-3-yl)tetrahydro-1H-5,8-methanopyrazolo[1,2-a]pyridazine-1,3(2H)-dione], the IC50 in assay [1] is 0.913 µM; in assay [2], above 20 µM.
For `Cc1ccc(-c2ccc(Cl)cc2)cc1C1=C(O)CC(C)(C)NC1=O` [Example 9-1, 3-(4′-chloro-4-methylbiphenyl-3-yl)-4-hydroxy-6,6-dimethyl-5,6-dihydropyridin-2(1H)-one] the same measures were 0.319 µM and above 20 µM.
Taken in the same sequence, the figures for `Cc1ccc(-c2ccc(Cl)cc2)cc1C1=C(O)C(C)(C)CNC1=O` [Example 9-2, 3-(4′-chloro-4-methylbiphenyl-3-yl)-4-hydroxy-5,5-dimethyl-5,6-dihydropyridin-2(1H)-one] were 0.806 µM and 9.08 µM.
For `Cc1ccc(-c2ccc(Cl)cc2)cc1C1=C(O)C2(CCCCC2)CNC1=O` [Example 9-3, 4-(4′-chloro-4-methylbiphenyl-3-yl)-5-hydroxy-2-azaspiro[5.5]undec-4-en-3-one], the IC50 in assay [1] worked out at 1.06 µM; in assay [2], 4.28 µM.
Turning to `Cc1ccc(-c2ccc(Cl)cc2)cc1C1=C(O)CC(C)(C)N(C)C1=O` [Example 9-4, 3-(4′-chloro-4-methylbiphenyl-3-yl)-4-hydroxy-1,6,6-trimethyl-5,6-dihydropyridin-2(1H)-one], the figures for the half-maximal inhibitory concentration (IC50) in assay [1] and in assay [2] were 5.38 µM and above 20 µM, respectively.
